# Experimental data taken from patent US20110097324A1, “COMPOSITIONS AND METHODS FOR MODULATING NICOTINIC/NMDA RECEPTOR FUNCTION” (CENTRE FOR ADDICTION AND MENTAL HEALTH, priority 2008, published 2011).
# Experiments:
# [1] = system: cultured hippocampal neurons; assay type: cell-based, rat; details: for mEPSC amplitude 30 min after treatment: glycine 200 μM 3 min, choline 1 mM, AP5 100 μM
# Method: Primary cultures from hippocampus were prepared from fetal Wistar rats (embryonic day 17-19) on Cell+ (Sarstedt) culture dishes as previously described in (10). The cultures were used for experiments on 12-15 d after plating.
# Miniature excitatory postsynaptic currents (mEPSCs) were recorded from cultured hippocampal neurons 2 to 4 weeks days after plating under whole-cell patch clamp configuration (11). Electrodes (3-5 MΩ) were pulled from high lead pipettes (Corning 8161, Warner Instruments). Cells were voltage clamped at −70 mV. Access resistance is below 10 MΩ, recordings with access resistance varying more than 10% were rejected from analysis.
# To determine whether activation of α7-nAchR is physiologically relevant in regulating synaptic strength, we examined the ability of α7-nAchR activation to modulate miniature excitatory postsynaptic currents (mEPSCs) during LTP in primary cultures of hippocampal neurons. mEPSCs in hippocampal neurons were recorded under whole-cell configuration. […] The cells were held at −70 mV to avoid potential interference by voltage-gated Ca^++ channels (12,13).
# NMDA receptor = assay type: cell-based, rat
# CREB = assay type: cell-based, rat
# Excerpt: To confirm that α7 nAChR is responsible for the observed activation of CREB, we measured CREB activity in HEK-293 cells expressing α7 nAChR.
# [2] = target: α7-nAchR-NR2A interaction (Rattus norvegicus, UniProt Q00959+Q05941); assay type: cell-based
# α7-nAchR-NR2A interaction, sequence (Q05941 23-502, other chains not shown): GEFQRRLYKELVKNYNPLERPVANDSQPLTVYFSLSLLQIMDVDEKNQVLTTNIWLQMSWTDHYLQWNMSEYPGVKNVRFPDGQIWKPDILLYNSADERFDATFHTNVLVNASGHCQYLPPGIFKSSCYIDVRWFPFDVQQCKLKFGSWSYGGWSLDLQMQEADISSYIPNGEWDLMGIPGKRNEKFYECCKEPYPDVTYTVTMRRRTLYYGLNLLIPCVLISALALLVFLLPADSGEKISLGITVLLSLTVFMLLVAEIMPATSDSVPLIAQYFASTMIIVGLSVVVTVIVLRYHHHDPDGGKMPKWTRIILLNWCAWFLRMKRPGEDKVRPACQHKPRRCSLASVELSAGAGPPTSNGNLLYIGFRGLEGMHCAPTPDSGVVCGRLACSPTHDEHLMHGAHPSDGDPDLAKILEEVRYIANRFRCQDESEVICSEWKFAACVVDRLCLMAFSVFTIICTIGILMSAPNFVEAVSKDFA
# α7-nAchR-NR2A interaction, sequence (Q00959 20-1464, other chains not shown): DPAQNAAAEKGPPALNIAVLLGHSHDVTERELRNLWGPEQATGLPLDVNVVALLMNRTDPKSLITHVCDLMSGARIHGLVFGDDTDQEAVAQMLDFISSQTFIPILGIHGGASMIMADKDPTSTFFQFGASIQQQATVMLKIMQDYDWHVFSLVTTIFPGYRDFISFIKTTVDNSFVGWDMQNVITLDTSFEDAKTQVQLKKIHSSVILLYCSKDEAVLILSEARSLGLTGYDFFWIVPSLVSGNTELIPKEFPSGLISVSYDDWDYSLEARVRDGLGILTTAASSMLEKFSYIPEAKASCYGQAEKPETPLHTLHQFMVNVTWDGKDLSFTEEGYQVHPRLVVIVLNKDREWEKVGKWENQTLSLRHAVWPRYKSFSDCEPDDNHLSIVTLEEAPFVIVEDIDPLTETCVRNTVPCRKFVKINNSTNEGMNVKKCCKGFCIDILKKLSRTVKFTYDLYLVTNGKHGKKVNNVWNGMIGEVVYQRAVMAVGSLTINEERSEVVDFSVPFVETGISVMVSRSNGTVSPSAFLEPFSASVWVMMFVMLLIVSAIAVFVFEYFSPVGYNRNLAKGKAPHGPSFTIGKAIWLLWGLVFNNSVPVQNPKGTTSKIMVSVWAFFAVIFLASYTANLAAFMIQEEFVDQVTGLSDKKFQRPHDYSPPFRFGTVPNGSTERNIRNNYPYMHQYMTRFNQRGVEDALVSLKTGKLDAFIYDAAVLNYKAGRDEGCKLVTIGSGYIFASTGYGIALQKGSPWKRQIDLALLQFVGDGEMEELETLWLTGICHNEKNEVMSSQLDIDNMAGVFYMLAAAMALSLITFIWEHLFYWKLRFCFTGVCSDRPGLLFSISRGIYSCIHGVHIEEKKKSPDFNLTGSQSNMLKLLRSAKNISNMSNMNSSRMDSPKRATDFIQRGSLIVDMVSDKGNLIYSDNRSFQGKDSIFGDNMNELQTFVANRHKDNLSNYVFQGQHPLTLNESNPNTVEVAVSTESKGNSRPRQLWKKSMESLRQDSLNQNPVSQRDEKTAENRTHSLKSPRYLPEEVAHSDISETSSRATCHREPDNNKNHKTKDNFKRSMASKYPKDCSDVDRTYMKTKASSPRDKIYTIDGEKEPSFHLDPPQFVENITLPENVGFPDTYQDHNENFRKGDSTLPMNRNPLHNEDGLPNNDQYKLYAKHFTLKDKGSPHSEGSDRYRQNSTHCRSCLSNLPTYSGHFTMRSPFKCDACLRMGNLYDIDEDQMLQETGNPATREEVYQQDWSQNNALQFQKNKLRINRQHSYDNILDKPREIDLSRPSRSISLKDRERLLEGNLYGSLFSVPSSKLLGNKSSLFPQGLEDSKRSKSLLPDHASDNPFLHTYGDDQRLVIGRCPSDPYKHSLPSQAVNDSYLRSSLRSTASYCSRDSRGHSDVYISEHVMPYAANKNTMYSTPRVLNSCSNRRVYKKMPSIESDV
# Method: To examine the effect of α7-nAchR activation on the interaction between α7-nAchR and NMDA receptors, we examined the ability of antibody against NR2A subunit to co-precipitate with the α7-nAchR in hippocampal primary culture treated with 1 mM choline or choline/NMDA (50 μM).
# α7 nAChR: NR2A complex = details: in vivo, 6 mg/kg/day
# Method: Thus, we pretreated rats with either nicotine or saline for 7 days subdermally (osmotic mini-pump, 6 mg/kg/day), and the expression of NR2A and α7 nAChR was examined in Western blot analysis.
compound,measurement,setting,value
NC(CCCP(=O)(O)O)C(=O)O (stereo not drawn) [AP5],effect on amplitude of mEPSCs,[1],can be abolished
C[C@]12N[C@H](Cc3ccccc31)c1ccccc12 [MK-801],block of enhancement of whole cell current induced by co-application of choline with NMDA,NMDA receptor,can be blocked
CCN1C[C@]2(COC(=O)c3ccccc3N3C(=O)C[C@H](C)C3=O)CC[C@H](OC)[C@@]34[C@@H]5C[C@H]6[C@H](OC)[C@@H]5[C@](O)(C[C@@H]6OC)[C@](O)([C@@H](OC)[C@H]23)[C@@H]14 [MLA],block of nicotine-enhanced CREB activity,CREB,can be blocked
"CN[C@H](CC(=O)O)C(=O)O [NMDA, N-methyl-D-aspartate]",α7-nAchR-NR2A interaction after treatment,[2],no significant effect
C[N+](C)(C)CCO [choline],mEPSC amplitude 30 min after treatment,[1],31.4+/−2.7 pA
NCC(=O)O [glycine],mEPSC amplitude 30 min after treatment,[1],26.5+/−2.3 pA
CN1CCCC1c1cccnc1 (stereo not drawn) [nicotine],expression of NR2A or α7 nAChR in rat hippocampus,α7 nAChR: NR2A complex,no significant difference
same,α7 nAChR: NR2A complex formation in rat hippocampus,α7 nAChR: NR2A complex,significantly enhanced
α-bungarotoxin,block of enhancement of whole cell current induced by co-application of choline with NMDA,NMDA receptor,can abolish the choline induced upregulation of NMDA-mediated current
